This passage reports IC50 results from patent US20260325533A1, “CDK INHIBITOR COMPOUNDS” (ALEKSIA THERAPEUTICS, INC., priority 2023, published 2026).

The structures appear in SMILES notation. Where two headings read alike, the source gives them in different places. A value given as a limit tells only on which side of the number the result lay.

Common to all, as to assay type: biochemical
The target of test [1] is CDK2/CCNE1 (Homo sapiens, UniProt P24941). In words: CDK2 homogeneous time-resolved fluorescence (HTRF) kinase assay. The conditions noted are these: CDK2/CCNE. In outline: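 CDK2/CCNE1 (3 nM) preincubated 20 min at 23 °C with compound, then reacted 60 min at 23 °C with 1 mM ATP and 50 nM ULight-4E-BP1 (Thr37/46) peptide. Stopped with EDTA, phospho-peptide detected by Eu-anti-phospho antibody (665 nm or 665/615 ratio). IC50 from 11-point half-log titrations typically starting at 10 μM.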

The target in test [2] is CDK1/CCNB1 (Homo sapiens, UniProt P06493). In words: CDK1 homogeneous time-resolved fluorescence (HTRF) kinase assay. The conditions noted are these: CDK1/CCNB; x = IC50 >250 nM; read-out: CDK1/CCNB IC50 (>250 nM column). In outline:
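HTRF assay with 0.5 nM CDK1/CCNB1, 1 mM ATP, 50 nM ULight-eIF4E-BP1 (Thr37/46) peptide; compound preincubated 20 min, reaction 60 min at 23 °C, EDTA stop, Eu-anti-phospho antibody detection. 11-point half-log titration from 10 μM, 1% DMSO; IC50 from 665 nm or 665/615 signal.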

Test [3] has as its target CDK4/CCND3 (Homo sapiens, UniProt P11802). Put plainly: CDK4 homogeneous time-resolved fluorescence (HTRF) kinase assay. The conditions noted are these: CDK4/CCND. Put shortly: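 Inhibition of CDK4/CCND3 (1.5 nM) was measured at high ATP (1 mM) using 50 nM ULight-labelled 4E-BP1 Thr37/46 peptide; detection used 2 nM europium anti-phospho antibody after EDTA quench. IC50 values came from 11-point half-log titrations typically starting at 10 μM.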

Test [4] has as its target CDK6/CCND1 (Homo sapiens, UniProt Q00534). In words: CDK6 homogeneous time-resolved fluorescence (HTRF) kinase assay. The following applies: CDK6/CCND. In outline:
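1 nM enzyme, 1 mM ATP, 50 nM ULight-4E-BP1 (Thr37/46) peptide, 1% DMSO; 20 min compound preincubation, 60 min reaction, 23 °C. EDTA stop, 2 nM Eu-anti-phospho-4E-BP1 antibody 60 min. TR-FRET 665 nm (or 665/615 ratio); IC50 from 11-point half-log titration, top 10 μM.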

Where [5] appears, read: x = IC50 <25 nM, read-out: CDK2/CCNE IC50 (<25 nM).
Where [6] appears, read: x = IC50 >250 nM, read-out: CDK4/CCND IC50 (>250 nM column).
Setting [7] is: x = IC50 >250 nM, read-out: CDK6/CCND IC50 (>250 nM column).
Setting [8] is: x = IC50 >250 nM, read-out: CDK2/CCNE IC50 (>250 nM column).
The mark [9] stands for this setting: x = IC50 25-250 nM, read-out: CDK2/CCNE IC50 (25-250 nM).
[10] abbreviates: x = IC50 25-250 nM, read-out: CDK6/CCND IC50 (25-250 nM).
Where [11] appears, read: x = IC50 25-250 nM, read-out: CDK4/CCND IC50 (25-250 nM).

Sequence of CDK1/CCNB1 (P06493 whole entry): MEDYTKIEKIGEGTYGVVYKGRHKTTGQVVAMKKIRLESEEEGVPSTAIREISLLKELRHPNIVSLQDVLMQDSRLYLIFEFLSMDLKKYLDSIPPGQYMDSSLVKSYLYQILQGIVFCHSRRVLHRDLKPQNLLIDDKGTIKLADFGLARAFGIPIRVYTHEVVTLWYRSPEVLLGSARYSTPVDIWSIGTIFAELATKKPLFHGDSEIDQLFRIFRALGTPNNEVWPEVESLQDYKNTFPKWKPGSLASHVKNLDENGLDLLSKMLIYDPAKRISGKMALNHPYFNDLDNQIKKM
Sequence of CDK1/CCNB1 (P14635 whole entry partner): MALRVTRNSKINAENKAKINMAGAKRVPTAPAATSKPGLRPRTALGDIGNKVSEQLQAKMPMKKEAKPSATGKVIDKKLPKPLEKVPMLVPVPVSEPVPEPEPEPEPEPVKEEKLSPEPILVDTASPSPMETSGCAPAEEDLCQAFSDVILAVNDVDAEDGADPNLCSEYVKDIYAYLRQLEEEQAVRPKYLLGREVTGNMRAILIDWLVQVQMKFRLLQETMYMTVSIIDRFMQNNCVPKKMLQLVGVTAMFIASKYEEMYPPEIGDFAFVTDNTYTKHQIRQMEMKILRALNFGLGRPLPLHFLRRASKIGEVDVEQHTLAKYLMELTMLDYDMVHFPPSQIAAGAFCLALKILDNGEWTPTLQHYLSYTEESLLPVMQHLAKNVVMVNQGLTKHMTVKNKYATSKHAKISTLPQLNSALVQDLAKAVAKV
Sequence of CDK6/CCND1 (Q00534 whole entry): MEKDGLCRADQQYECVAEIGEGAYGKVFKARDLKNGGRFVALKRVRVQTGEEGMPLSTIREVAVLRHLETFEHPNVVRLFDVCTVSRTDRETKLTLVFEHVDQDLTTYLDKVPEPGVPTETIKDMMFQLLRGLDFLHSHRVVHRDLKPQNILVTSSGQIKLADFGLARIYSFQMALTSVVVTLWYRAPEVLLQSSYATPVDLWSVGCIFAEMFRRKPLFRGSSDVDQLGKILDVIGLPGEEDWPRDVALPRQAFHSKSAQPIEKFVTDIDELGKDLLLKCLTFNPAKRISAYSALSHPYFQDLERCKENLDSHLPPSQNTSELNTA
Sequence of CDK6/CCND1 (P24385 whole entry partner): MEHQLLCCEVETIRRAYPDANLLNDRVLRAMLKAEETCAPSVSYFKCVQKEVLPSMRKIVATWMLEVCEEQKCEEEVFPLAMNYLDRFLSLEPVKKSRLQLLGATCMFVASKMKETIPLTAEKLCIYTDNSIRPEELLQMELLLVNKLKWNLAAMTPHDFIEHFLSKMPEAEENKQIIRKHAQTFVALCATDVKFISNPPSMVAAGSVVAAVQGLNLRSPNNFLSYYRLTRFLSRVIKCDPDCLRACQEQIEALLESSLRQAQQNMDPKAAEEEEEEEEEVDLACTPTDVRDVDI
Sequence of CDK4/CCND3 (P11802 whole entry): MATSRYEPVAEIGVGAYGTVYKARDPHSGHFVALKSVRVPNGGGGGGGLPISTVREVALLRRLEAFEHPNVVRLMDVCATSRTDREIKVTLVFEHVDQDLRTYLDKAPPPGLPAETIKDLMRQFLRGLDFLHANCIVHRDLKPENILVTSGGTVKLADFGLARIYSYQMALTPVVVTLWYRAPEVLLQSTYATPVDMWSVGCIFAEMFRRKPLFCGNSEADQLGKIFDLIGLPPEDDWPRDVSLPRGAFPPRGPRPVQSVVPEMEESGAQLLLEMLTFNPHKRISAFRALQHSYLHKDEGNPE
Sequence of CDK4/CCND3 (P30281 whole entry partner): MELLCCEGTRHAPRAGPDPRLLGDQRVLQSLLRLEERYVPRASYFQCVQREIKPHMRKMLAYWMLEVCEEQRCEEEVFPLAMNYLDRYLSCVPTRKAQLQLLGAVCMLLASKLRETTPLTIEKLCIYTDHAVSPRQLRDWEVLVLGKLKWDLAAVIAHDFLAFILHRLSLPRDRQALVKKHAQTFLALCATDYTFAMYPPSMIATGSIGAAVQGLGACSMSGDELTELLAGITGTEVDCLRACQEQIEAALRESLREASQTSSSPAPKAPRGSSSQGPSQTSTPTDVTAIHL

Take `CS(=O)(=O)c1ccc(Nc2cc3c(C#Cc4c(N)ncnc4Cl)nccc3cn2)cc1` [Example 510, 5-((4-amino-6-chloropyrimidin-5-yl)ethynyl)-N-(4-(methylsulfonyl)phenyl)-2,6-naphthyridin-3-amine]: the IC50 in test [1] (setting [5]) was < 25 nM; in test [2], > 250 nM; in test [3] (setting [6]) it was > 250 nM; in test [4] (setting [7]) it was > 250 nM.

With `COc1cnc(C#Cc2nccc3cnc(Nc4ccc(S(C)(=O)=O)cc4)cc23)nc1` [Example 513, 5-((5-methoxypyrimidin-2-yl)ethynyl)-N-(4-(methylsulfonyl)phenyl)-2,6-naphthyridin-3-amine], the IC50 in test [1] (setting [8]), in test [2], in test [3] (setting [6]) and in test [4] (setting [7]) was > 250 nM each time.

Regarding `CS(=O)(=O)c1ccc(Nc2cc3c(C#Cc4ccc5c(c4)OCC(=O)N5)nccc3cn2)cc1` [Example 519, 7-((7-((4-(methylsulfonyl)phenyl)amino)-2,6-naphthyridin-1-yl)ethynyl)-2H-benzo[b][1,4]oxazin-3(4H)-one], the IC50 in test [1] (setting [9]) is 25 to 250 nM; in test [2] it was > 250 nM; in test [3] (setting [6]), > 250 nM; in test [4] (setting [7]) it was > 250 nM.

For `CS(=O)(=O)c1ccc(Nc2cc3c(C#Cc4ccc(C(F)F)nc4)nccc3cn2)cc1` [Example 524, 5-((6-(difluoromethyl)pyridin-3-yl)ethynyl)-N-(4-(methylsulfonyl)phenyl)-2,6-naphthyridin-3-amine], the IC50 in test [1] (setting [8]), in test [2], in test [3] (setting [6]) and in test [4] (setting [7]) was > 250 nM in each case.

Consider `CS(=O)(=O)c1ccc(Nc2cc3c(C#Cc4ccc(Cl)cn4)nccc3cn2)cc1` [Example 544, 5-((5-chloropyridin-2-yl)ethynyl)-N-(4-(methylsulfonyl)phenyl)-2,6-naphthyridin-3-amine], for which the IC50 in test [1] (setting [8]), in test [2], in test [3] (setting [6]) and in test [4] (setting [7]) was > 250 nM in each case.

With `CC(C)(O)c1cc2ccc(C#Cc3nccc4cnc(Nc5ccc(S(C)(=O)=O)cc5)cc34)cc2[nH]1` [Example 590, 2-(6-((7-((4-(methylsulfonyl)phenyl)amino)-2,6-naphthyridin-1-yl)ethynyl)-1H-indol-2-yl)propan-2-ol], the IC50 in test [1] (setting [9]) is 25 to 250 nM; in test [2], > 250 nM; in test [3] (setting [6]) it was > 250 nM; in test [4] (setting [7]), > 250 nM.

Regarding `Cc1c(-c2nccc3cnc(Nc4ccc(S(C)(=O)=O)cc4)cc23)ncc2[nH]ncc12` [Example 591, 5-(4-methyl-1H-pyrazolo[3,4-c]pyridin-5-yl)-N-(4-(methylsulfonyl)phenyl)-2,6-naphthyridin-3-amine], the IC50 is 25 to 250 nM in test [1] (setting [9]), > 250 nM in test [2], > 250 nM in test [3] (setting [6]) and > 250 nM in test [4] (setting [7]).

Turning to `CC(Cn1ncc2c(C)c(-c3nccc4cnc(Nc5ccc(S(C)(=O)=O)cc5)cc34)ccc21)=NO` [Example 592, 1-(4-methyl-5-(7-((4-(methylsulfonyl)phenyl)amino)-2,6-naphthyridin-1-yl)-1H-indazol-1-yl)propan-2-one oxime], the IC50 is 25 to 250 nM in test [1] (setting [9]), > 250 nM in test [2], > 250 nM in test [3] (setting [6]) and > 250 nM in test [4] (setting [7]).

As for `CC(=O)Nc1cc(Nc2cc3c(-c4ccc5c(cnn5CCO)c4C)nccc3cn2)ccc1S(C)(=O)=O` [Example 593, N-(5-((5-(1-(2-hydroxyethyl)-4-methyl-1H-indazol-5-yl)-2,6-naphthyridin-3-yl)amino)-2-(methylsulfonyl)phenyl)acetamide], the IC50 in test [1] (setting [9]) was 25 to 250 nM; in test [2] it was > 250 nM; in test [3] (setting [6]) it was > 250 nM; in test [4] (setting [7]) it was > 250 nM.

As to `COC(=O)c1cc2ccc(C#Cc3nccc4cnc(Nc5ccc(S(C)(=O)=O)cc5)cc34)cc2[nH]1` [Example 594, methyl 6-((7-((4-(methylsulfonyl)phenyl)amino)-2,6-naphthyridin-1-yl)ethynyl)-1H-indole-2-carboxylate], the IC50 is 25 to 250 nM in test [1] (setting [9]), > 250 nM in test [2], > 250 nM in test [3] (setting [6]) and > 250 nM in test [4] (setting [7]).

Take `Cc1c(-c2nccc3cnc(Nc4ccc(S(C)(=O)=O)cc4)cc23)ccc2c1cnn2CC(O)(C(F)(F)F)C(F)(F)F` [Example 595, 1,1,1,3,3,3-hexafluoro-2-((4-methyl-5-(7-((4-(methylsulfonyl)phenyl)amino)-2,6-naphthyridin-1-yl)-1H-indazol-1-yl)methyl)propan-2-ol]: the IC50 in test [1] (setting [5]) is < 25 nM; in test [2], > 250 nM; in test [3] (setting [6]), > 250 nM; in test [4] (setting [10]), 25 to 250 nM.

`CS(=O)(=O)c1ccc(Nc2cc3c(C#CC4CCN(Cc5cn[nH]c5)CC4)nccc3cn2)cc1` [Example 603, 5-((1-((1H-pyrazol-4-yl)methyl)piperidin-4-yl)ethynyl)-N-(4-(methylsulfonyl)phenyl)-2,6-naphthyridin-3-amine]: the IC50 was < 25 nM in test [1] (setting [5]), > 250 nM in test [2], > 250 nM in test [3] (setting [6]) and 25 to 250 nM in test [4] (setting [10]).

In the case of `CC(C)(O)CN1CCc2cc(-c3nccc4cnc(Nc5ccc(S(C)(=O)=O)cc5)cc34)ccc2C1` [Example 629, 2-Methyl-1-(6-(7-((4-(methylsulfonyl)phenyl)amino)-2,6-naphthyridin-1-yl)-3,4-dihydroisoquinolin-2(1H)-yl)propan-2-ol], the IC50 in test [1] (setting [5]) is < 25 nM; in test [2], > 250 nM; in test [3] (setting [6]), > 250 nM; in test [4] (setting [10]) it was 25 to 250 nM.

`CC(=O)NCCn1cc2c(C)c(-c3nccc4cnc(Nc5ccc(S(C)(=O)=O)cc5)cc34)ccc2n1` [Example 630, N-(2-(4-methyl-5-(7-((4-(methylsulfonyl)phenyl)amino)-2,6-naphthyridin-1-yl)-2H-indazol-2-yl)ethyl)acetamide]: the IC50 in test [1] (setting [5]) is < 25 nM; in test [2] it was > 250 nM; in test [3] (setting [11]), 25 to 250 nM; in test [4] (setting [10]), 25 to 250 nM.

`C=Cc1c(-c2nccc3cnc(Nc4ccc(S(C)(=O)=O)cc4)cc23)ccc2[nH]ncc12` [Example 641, N-(4-(methylsulfonyl)phenyl)-5-(4-vinyl-1H-indazol-5-yl)-2,6-naphthyridin-3-amine]: the IC50 in test [1] (setting [9]) is 25 to 250 nM; in test [2], > 250 nM; in test [3] (setting [6]) it was > 250 nM; in test [4] (setting [7]), > 250 nM.

In the case of `Cc1c(-c2nccc3cnc(Nc4ccc(S(C)(=O)=O)cc4)cc23)ccc2c1cnn2CC(=O)NC1CCCCC1` [Example 642, N-cyclohexyl-2-(4-methyl-5-(7-((4-(methylsulfonyl)phenyl)amino)-2,6-naphthyridin-1-yl)-1H-indazol-1-yl)acetamide], the IC50 was 25 to 250 nM in test [1] (setting [9]), > 250 nM in test [2], > 250 nM in test [3] (setting [6]) and > 250 nM in test [4] (setting [7]).

Turning to `Cc1c(-c2nccc3cnc(Nc4ccc(S(C)(=O)=O)cc4)cc23)ccc2c1cnn2C(N)=O` [Example 659, 4-methyl-5-(7-((4-(methylsulfonyl)phenyl)amino)-2,6-naphthyridin-1-yl)-1H-indazole-1-carboxamide], the IC50 in test [1] (setting [5]) was < 25 nM; in test [2], > 250 nM; in test [3] (setting [11]), 25 to 250 nM; in test [4] (setting [10]), 25 to 250 nM.

In the case of `N#Cc1ccc(C#Cc2nccc3cnc(Nc4ccc(S(=O)(=O)CCN5CCOCC5)cc4)cc23)cc1` [Example 661, 4-((7-((4-((2-morpholinoethyl)sulfonyl)phenyl)amino)-2,6-naphthyridin-1-yl)ethynyl)benzonitrile], the IC50 in test [1] (setting [9]) was 25 to 250 nM; in test [2], > 250 nM; in test [3] (setting [6]), > 250 nM; in test [4] (setting [7]), > 250 nM.

For the molecule `Cn1cc(C#Cc2nccc3cnc(Nc4ccc(S(C)(=O)=O)cc4)cc23)ccc1=O` [Example 663, 1-Methyl-5-((7-((4-(methylsulfonyl)phenyl)amino)-2,6-naphthyridin-1-yl)ethynyl)pyridin-2(1H)-one], the IC50 in test [1] (setting [9]) is 25 to 250 nM; in test [2], > 250 nM; in test [3] (setting [6]), > 250 nM; in test [4] (setting [7]), > 250 nM.
